{"source": "patent US20240299328A1", "about": "“COMPOSITIONS COMPRISING 15-HEPE AND METHODS OF TREATING AND/OR PREVENTING HEMATOLOGIC DISORDERS AND RELATED DISEASES” (Afimmune Limited, priority 2023, published 2024)", "tested_on": "humanized sickle cell (SS) mice exposed to H/R stress", "experiment": "SCD (SS) mice exposed to H/R stress: lung, kidney and liver histopathology", "type": "in vivo", "set-up": "key to Lung thrombi / Kidney thrombi / Liver thrombi: 0: no thrombi; +: presence of thrombi per field at the magnification ×250", "conditions": "1000 mg/Kg/d for 6 weeks", "procedure": "Lung, kidney and liver histological analysis: Paraffin-embedded tissue blocks were cut into 2-3 μm sections and mounted on adhesion microscope glass slides for Hematoxylin-Eosin (H&E), and Perls' staining for iron content. The analysis was performed on four different fields at a magnification 200×. Tissue pathological analysis, inflammatory cell infiltrate, the presence of thrombi and iron deposition were carried out by blinded pathologists as previously described.\n(§1) Score for inflammatory cell infiltrate. Quantification of inflammatory cell infiltrates was expressed as the mean of cells per field at magnification of X250, as resulting by the analysis of at least 10 different fields on each hematoxylin-eosin-stained whole lung section. Data are expressed as means±SEM; * p<0.05 compared to normoxia.\nThrombi: 0: no thrombi; +: presence of thrombi per field at the magnification ×250.\nScore for inflammatory cell infiltrate. Quantification of inflammatory cell infiltration in renal cortex of kidney was determined in hematoxylin-eosin-stained sections using a 0 to 4 scale based on the percentage of cell infiltrates occupied area in each filed. 0 (no sign of infiltration); 1 (1-10% of the area with cell infiltration); 2 (11-25%); 3 (26-50%); 4 […]. The mean of 15 randomly selected field were analyzed at magnification ×400. Data are expressed as means±SEM; * p<0.05 compared to normoxia; ºp<0.05 compared to vehicle. Thrombi: 0: no thrombi; +: presence of thrombi presence of thrombi per field at the magnification ×250.\nas §1, with “×250,” for “X250,”, “liver” for “lung”\nThrombi: 0: no thrombi; +: presence of thrombi presence of thrombi per field at the magnification ×250.\nStatistical analysis: Non-parametric Pairwise Wilcoxon Rank Sum Tests was used."}
{"compound": "CC/C=C\\C[C@H](O)/C=C/C=C\\C/C=C\\C/C=C\\CCCC(=O)OCC", "note": "[DS102, 15(S)-hydroxy-(5Z,8Z,11Z,13E,17Z)-eicosapentaenoic acid ethyl ester]", "values": [{"measurement": "Kidney thrombi", "setting": "n = 4", "result": 0}, {"measurement": "Liver thrombi", "setting": "n = 4", "result": 0}, {"measurement": "Lung thrombi", "setting": "n = 4", "result": 0}, {"measurement": "liver iron accumulation (Perls' staining)", "setting": "vs vehicle", "result": "significant reduction"}, {"measurement": "thrombi formation in liver", "setting": "vs vehicle", "result": "significant reduction"}]}
